From patent US4826872A, “Pharmaceutical composition for treatment of cataract” (Takeda Chemical Industries, Ltd., priority 1986, dated 1989)
Where two headings read alike, the source gives them in different places.

Assays:
[1] = tested on: rabbit lens epithelial cells; assay: Test System I: MDA formed by auto-oxidation of docosahexaenoic acid in culture of lens epithelial cells; format: cell-based; conditions: for Amount of MDA in culture medium: 24 hours, normal 1.5, control 29.2
From the text: (§1) The inhibitory effect of 2-0-octadecylascorbic acid [compound (I-A)]on lens epithelial cells was studied.
(§2) The lens epithelial cells were obtained from a male white rabbit weighing about 2 kg. Thus, after the […] was sacrificed, the eyeballs were immediately enucleated and subjected to the following aseptic procedures. The eyeballs were washed with Hank's balanced salt solution (pH 7.2), disinfected by 30-second immersion in 80% alcohol and re-washed with the same balanced salt solution. Then, using a small knife, the sclera was cut open from the posterior part of the bulb and the lens was taken out. The retina, vitreous body and the zonule of Zinn were removed. Then, the capsule was punctured and separated from the lens by means of forceps. (The epithelial cells came off with the capsule). The separated capsule was incubated in 0.01% EDTA-0.125% trypsin at 37° C. for 20 minutes After addition of the culture medium mentioned below, the mixture was centrifuged at 1,000 rpm for 2 minutes. By repeating this procedure, the epithelial cells were isolated. These cells were subjected to a few serial passages and used in the experiment. The culture medium was Eagle's medium (MEM) supplemented with 15% bovine fetal serum.
(§3) The following two oxidation systems were used in the experiment: the system using the cytotoxic effect of lipid peroxidation products produced by auto-oxidation of docosahexaenoic acid as an indicator and the system using the cytotoxic effect of activated oxygen species produced by the xanthine-xanthine oxidase system as an indicator. Thus, the confluent cells in dishes were incubated in the following media for 24 hours and the lipid peroxides in the cultures were determined.
(§4) (1) Normal: Cultured in MEM only
(§5) (2) Control: Cultured in MEM supplemented
with 250 μg/ml of docosahexaenoic
(3) Drug: Cultured in MEM supplemented
(§6) The thiobarbituric acid method of Yagi [Anal. Biochem., 95, 351-358 (1979)]was used for Test System I and the method of Nakashima [Chem. Pharm. Bull., 33. 5380-5384 (1985)]and Ohsawa [Anal. Sci., 1, 473-476 (1985)]using 1,3-diphenyl-2-thiobarbituric acid was employed with some modification for Test System II.

[2] = tested on: rabbit lens epithelial cells; assay: Test System II: MDA formed by activated oxygen species of the xanthine-xanthine oxidase system in culture of lens epithelial cells; format: cell-based; conditions: for Amount of MDA in culture medium: 24 hours, normal 0.005, control 0.134
From the text: as §1, §2, §3, §4, §5
with 1 mM of xanthine and 0.01
U/ml of xanthine oxidase
(3) Drug: Cultured in MEM supplemented with
1 mM of xanthine and 0.01 U/ml of
xanthine oxidase plus the drug.
as §6

[3] = tested on: cataract; conditions: cited from earlier work
[4] = tested on: lens (cataract after streptozocin administration); assay: Slit-lamp observation of progress of cataract in streptozocin-treated rats (Experiment 1); format: in vivo, male S.D. strain rats; conditions: vs control group, lens observed 7-35 days after streptozocin
Experimental: Test procedure: 4-week-old male S.D. strain rats were purchased from Shizuoka Prefecture Animals Farmers' Cooperative, grouped by 10 animals after 5 days of preliminary feeding, and subjected to the test. […] To the vitamin E group, tocopherol acetate (50 mg/ml) was given orally in the same way at the dose of […] (400 mg/kg/day). To the control group, tap water was orally given at 200 μl/100 g.
0 No opacity is observed in the lens.
I The surface of the lens is slightly opaque or small vacuoles appear on the equator.
II Vacuoles increase in number and distribute over the cortex while fusing with each other.
III Vacuoles distributed over the most part of the cortex begin to disappear.
IV Most vacuoles have disappeared, and the whole cortex becomes opaque and translucent.
V The nucleoplasm becomes opaque.
VI The whole lens becomes white turbid.

[5] = tested on: cataract; conditions: instillation; many specialists doubtful; cited from earlier work
[6] = cited from Mechanism of Cataract Formation in the Human Lens (1981)

Cc1c(C)c2c(c(C)c1O)CCC(C)(CCCC(C)CCCC(C)CCCC(C)C)O2 (racemic) [DL-α-Tocopherol, DL-α-tocopherol, reference compound]
Amount of MDA in culture medium ([1]; drug 125 μg/ml): 4.2 ± 0.1 n mole/ml
Concentration for the same effect relative to compound (I-A) ([1]; multiple of the concentration of compound (I-A)): about 50 times
Amount of MDA in culture medium ([2]; drug 10 μg/ml): 0.009 ± 0.011 n mole/ml

COc1cccc2c1C(=O)c1c(O)c3c(c(O)c1C2=O)C[C@@](O)(C(=O)CO)C[C@@H]3O[C@H]1C[C@H](N)[C@H](O)[C@H](C)O1 [Adriamycin]
Induction of cataract [3, 6]: induce cataract

CCCCCCCCCCCCCCCCCCOC1=C(O)C(C(O)CO)OC1=O (stereo not shown) [Compound (I-A), 2-0-octadecylascorbic acid]
Delay of progress of cataract (lens stage by slit lamp) ([4]; oral, 100 mg/kg/day first two days then 40 mg/kg/day, Kruskal-Wallis H-test): delayed significantly the progress of cataract
Amount of MDA in culture medium ([1]; drug 2.5 μg/ml): 6.5 ± 0.1 n mole/ml
Amount of MDA in culture medium ([1]; drug 5 μg/ml): 5.8 ± 0.7 n mole/ml
Amount of MDA in culture medium ([1]; drug 10 μg/ml): 10.3 ± 0.6 n mole/ml
Inhibition of formation of MDA (in words) ([1]; higher concentrations): inhibitory effect was attenuated
Inhibition of formation of MDA (in words) ([1]; low concentrations (<5 μg/ml)): strongly inhibit the formation of MDA
Effect relative to DL-α-tocopherol (in words) [2]: as effective as DL-α-tocopherol
Inhibition of MDA (in words) [2]: substantially complete inhibition of MDA
Amount of MDA in culture medium ([2]; drug 2 μg/ml): 0.024 ± 0.015 n mole/ml
Amount of MDA in culture medium ([2]; drug 10 μg/ml): 0.016 ± 0.014 n mole/ml
Amount of MDA in culture medium ([2]; drug 50 μg/ml): 0.001 ± 0.001 n mole/ml

Nc1nc[nH]n1 [amizole]
Induction of cataract ([3]; in vivo): induce cataract

N[C@@H](CCC(=O)N[C@@H](CS)C(=O)NCC(=O)O)C(=O)O [glutathione]
Effectiveness for treatment of cataract [5]: effective to some extent

CN(N=O)C(=O)N[C@@H](C=O)[C@@H](O)[C@H](O)[C@H](O)CO [streptozocin]
Induction of cataract [3, 6]: induce cataract

CC(=O)Oc1c(C)c(C)c2c(c1C)CCC(C)(CCC[C@H](C)CCC[C@H](C)CCCC(C)C)O2 (stereo partly shown) [vitamin E, tocopherol acetate, reference compound]
Delay of progress of cataract (lens stage by slit lamp) ([4]; oral tocopherol acetate 400 mg/kg/day): did not delay the progress of cataract
